The source made the active and inactive calls. The rule behind the calls is not given here.
Experiments:
[1] = species: Rattus norvegicus; conditions: Wistar, Trachea
[2] = Bronchodilatory activity in Wistar rat trachea assessed as inhibition of carbacol-induced contraction; assay type: functional; conditions: read-out: ED50 (the source's name)
[3] = test system: Mus musculus; experiment: Toxicity in ICR mouse assessed as change in testicle weight at 18 mg/kg, po qd for 7 days measured every day for 7 days (0.118 +/- 0.004 g); assay type: organism-based; design: dose 18 mg/kg, route oral; conditions: in vivo, 168 h
[4] = test system: Mus musculus; experiment: Toxicity in ICR mouse assessed as change in liver weight at 18 mg/kg, po qd for 7 days measured every day for 7 days (1.772 +/- 0.120 g); assay type: organism-based; design: dose 18 mg/kg, route oral; conditions: in vivo, 168 h
[5] = test system: Mus musculus; experiment: Toxicity in ICR mouse assessed as change in spleen weight at 36 mg/kg, po qd for 7 days measured every day for 7 days (0.143 +/- 0.033 g); assay type: organism-based; design: dose 36 mg/kg, route oral; conditions: in vivo, 168 h
[6] = test system: Mus musculus; experiment: Toxicity in ICR mouse assessed as change in heart weight at 54 mg/kg, po qd for 7 days measured every day for 7 days (0.155 +/- 0.002 g); assay type: organism-based; design: dose 54 mg/kg, route oral; conditions: in vivo, 168 h
[7] = test system: Mus musculus; experiment: Toxicity in ICR mouse assessed as change in kidney weight at 18 mg/kg, po qd for 7 days measured every day for 7 days (0.248 +/- 0.026 g); assay type: organism-based; design: dose 18 mg/kg, route oral; conditions: in vivo, 168 h
[8] = test system: Mus musculus; experiment: Toxicity in ICR mouse assessed as change in heart weight at 36 mg/kg, po qd for 7 days measured every day for 7 days (0.155 +/- 0.002 g); assay type: organism-based; design: dose 36 mg/kg, route oral; conditions: in vivo, 168 h
[9] = test system: Mus musculus; experiment: Toxicity in ICR mouse assessed as change in liver weight at 36 mg/kg, po qd for 7 days measured every day for 7 days (1.772 +/- 0.120 g); assay type: organism-based; design: dose 36 mg/kg, route oral; conditions: in vivo, 168 h
[10] = test system: Mus musculus; experiment: Toxicity in ICR mouse assessed as change in liver weight at 54 mg/kg, po qd for 7 days measured every day for 7 days (1.772 +/- 0.120 g); assay type: organism-based; design: dose 54 mg/kg, route oral; conditions: in vivo, 168 h
[11] = Acute toxicity in ip dosed ICR mouse; assay type: organism-based; conditions: in vivo
[12] = test system: Mus musculus; experiment: Toxicity in ICR mouse assessed as change in testicle weight at 54 mg/kg, po qd for 7 days measured every day for 7 days (0.118 +/- 0.004 g); assay type: organism-based; design: dose 54 mg/kg, route oral; conditions: in vivo, 168 h
[13] = test system: Mus musculus; experiment: Toxicity in ICR mouse assessed as change in spleen weight at 18 mg/kg, po qd for 7 days measured every day for 7 days (0.143 +/- 0.033 g); assay type: organism-based; design: dose 18 mg/kg, route oral; conditions: in vivo, 168 h
[14] = test system: Mus musculus; experiment: Toxicity in ICR mouse assessed as change in testicle weight at 36 mg/kg, po qd for 7 days measured every day for 7 days (0.118 +/- 0.004 g); assay type: organism-based; design: dose 36 mg/kg, route oral; conditions: in vivo, 168 h
[15] = test system: Mus musculus; experiment: Toxicity in ICR mouse assessed as change in kidney weight at 54 mg/kg, po qd for 7 days measured every day for 7 days (0.248 +/- 0.026 g); assay type: organism-based; design: dose 54 mg/kg, route oral; conditions: in vivo, 168 h
[16] = test system: Mus musculus; experiment: Toxicity in ICR mouse assessed as change in heart weight at 18 mg/kg, po qd for 7 days measured every day for 7 days (0.155 +/- 0.002 g); assay type: organism-based; design: dose 18 mg/kg, route oral; conditions: in vivo, 168 h
[17] = test system: Mus musculus; experiment: Toxicity in ICR mouse assessed as change in kidney weight at 36 mg/kg, po qd for 7 days measured every day for 7 days (0.248 +/- 0.026 g); assay type: organism-based; design: dose 36 mg/kg, route oral; conditions: in vivo, 168 h
[18] = test system: Mus musculus; experiment: Toxicity in ICR mouse assessed as change in spleen weight at 54 mg/kg, po qd for 7 days measured every day for 7 days (0.143 +/- 0.033 g); assay type: organism-based; design: dose 54 mg/kg, route oral; conditions: in vivo, 168 h
[19] = Bronchodilatory activity in guinea pig trachea assessed as inhibition of contraction; assay type: functional, tissue-based
[20] = species: Cavia porcellus; experiment: Agonist activity at guinea pig trachea beta adrenergic receptor assessed as relaxation effect in presence of propranolol
[21] = species: Rattus norvegicus; experiment: Antagonist activity at rat trachea muscarinic acetylcholine receptor assessed as inhibition of carbachol-induced contraction preincubated for 10 mins followed by agonist challenge
[22] = test system: Mus musculus; experiment: Toxicity in ICR mouse assessed as mortality at 18 to 54 mg/kg, po qd for 7 days measured every day for 7 days; assay type: organism-based; design: dose 18-54 mg/kg, route oral; conditions: in vivo, 168 h
[23] = test system: Mus musculus; experiment: Toxicity in ICR mouse assessed as change in body weight at 18 to 54 mg/kg, po qd for 7 days measured every day for 7 days; assay type: organism-based; design: dose 18-54 mg/kg, route oral; conditions: in vivo, 168 h
[24] = test system: Trachea; experiment: Potency index, ratio of theophylline ED50 to compound ED50 for bronchodilatory activity in Wistar rat trachea; assay type: functional

Structure (SMILES)	EC50 [2]	other results
O=C(O)Cn1cnc2ccccc2c1=O		ED50 [1]: inactive
CN(C)CCOc1ncnc2ccccc12	162 µM	
O=c1c2ccccc2[n+]([O-])cn1CCCN1CCCCC1	45.3 µM	
O=c1[nH]cnc2ccccc12 [QUINAZOLINONE]	810 µM	
Cl.c1ccc2c(SCCCN3CCCCC3)ncnc2c1		Activity [3]: 0.122 g; Activity [4]: 1.762 g; Activity [5]: 0.147 g; Activity [6]: 0.144 g; Activity [7]: 0.24 g; Activity [8]: 0.154 g; Activity [9]: 1.679 g; Activity [10]: 1.64 g; LD50 [11]: 89.1 mg/kg; Activity [12]: 0.115 g; Activity [13]: 0.134 g; Activity [14]: 0.116 g; Activity [15]: 0.242 g; Activity [16]: 0.146 g; Activity [17]: 0.238 g; Activity [18]: 0.131 g
CN1CCCC1CCNc1ncnc2ccccc12 (centres undefined)	173 µM	
CN1CCCC1CCSc1ncnc2ccccc12 (centres undefined)	76.6 µM	
c1ccc2c(OCCN3CCCCC3)ncnc2c1	301 µM	
c1ccc2c(NCCN3CCOCC3)ncnc2c1	258 µM	
c1ccc2c(NCCN3CCCCC3)ncnc2c1	191 µM	
Cl.O=c1c2ccccc2ncn1CCCN1CCCCC1		LD50 [11]: 162 mg/kg
COc1cc2nc3n(c(=O)c2cc1OC)CCCCC3		EC50 [19]: 73 µM
CN(C)CCSc1ncnc2ccccc12	65.3 µM	
c1ccc2c(OCCCN3CCCCC3)ncnc2c1	132 µM	
CN(C)CCn1cnc2ccccc2c1=O	440 µM	
O=c1c2ccccc2ncn1CCN1CCCC1	562 µM	

Structure (SMILES)	EC50 [2]	other results
O=c1ccncn1CCCN1CCCCC1	1120 µM	
O=c1c2ccccc2nc2n1CC[C@@H]2O	2860 µM	
c1ccc2c(SCCCN3CCCCC3)ncnc2c1 [listing 1 of 2 here]		Activity [20]: Active; Activity [21]: Active
O=c1cnc2ccccc2n1CCCN1CCCCC1	43 µM	
CN1CCCC1CCn1cnc2ccccc2c1=O (centres undefined)	104 µM	
Cl.c1ccc2nc(SCCCN3CCCCC3)cnc2c1	3.26 µM	Activity [20]: Active; LD50 [11]: 104 mg/kg; Activity [21]: Active
Cn1c(=O)c2nc[nH]c2n(C)c1=O [THEOPHYLLINE]	2090 µM	
O=c1c2ccccc2ncn1CCC[N+]1([O-])CCCCC1	601 µM	
Cn1cnc2ccccc2c1=O	747 µM	
O=c1ccn(CCCN2CCCCC2)c2ccccc12	946 µM	
O=c1c2ccccc2ncn1CCN1CCCCC1	178 µM	
c1ccc2c(SCCCN3CCCCC3)ncnc2c1 [listing 2 of 2 here]	3.42 µM	Activity [22]: Non-toxic; Activity [23]: Non-toxic
O=c1ccn(CCCN2CCCCC2)cc1	4230 µM	
c1ccc2c(SCCCN3CCCCC3)ccnc2c1	58.7 µM	
O=c1c2ccccc2ncn1CCCN1CCCCC1	28.3 µM	Ratio ED50 [24]: 100
O=c1c2ccccc2ncn1CCN1CCOCC1	1900 µM	
